Experimental data published in patent publication US20250051362A1, “SUBSTITUTED FUSED HETEROCYCLIC COMPOUND, AND PREPARATION METHOD THEREFOR AND USE THEREOF” (Shanghai Annova Biotechnology Co., Ltd., priority 2021, published 2025).

How the values were obtained:
[1] = molecular target: ATR kinase (Homo sapiens (Human), UniProt Q13535); assay: In vitro ATR kinase inhibition assay (Mobility Shift Assay, Caliper EZ Reader); assay type: biochemical; conditions: ATP concentration of Km; 4 h at 28° C.
Description: Experimental method: The inhibitory activity of the compounds on ATR kinase in vitro was determined by Mobility Shift Assay at an ATP concentration of Km using Caliper EZ Reader as a mobility shift assaying technology based on microfluidic chip technology.
Experimental procedure: (1) The compounds to be tested were dissolved in DMSO and serially diluted 4× for a total of 10 concentrations; (2) 0.06 μL of the compounds at different concentrations were pipetted into a 384-well plate using an Echo pipetting system; (3) a 2× kinase solution with a concentration of 10 nM ATR kinase was prepared from the ATR kinase and the 1× kinase buffer; and a 2× substrate solution with a concentration of 6 μM 5-FAM-AK-17 and 4 μM ATP was prepared from 5-FAM-AK-17, ATP and the 1× kinase buffer; (4) 10 μL of the 2× kinase solution was added into the 384-well plate and incubated for 10 min at room temperature; 10 μL of the 2× substrate solution was then added and incubated for 4 h at 28° C.; (5) 30 μL of the termination buffer was added to terminate the reaction, and then the 384-well plate was put into the Caliper EZ Reader to read the conversion rate data.

[2] = test system: human colon cancer LoVo cells; assay: Cell proliferation inhibition assay (CellTiter-Glo); assay type: cell-based; conditions: LoVo cells, 96 hours incubation; for Emax: read-out: Max Inhibition
Text: Experimental method: A CellTiter-Glo cell viability assay kit was used to test the inhibitory effect of the compounds on the in vitro proliferation of human colon cancer LoVo cells.
Experimental materials: LoVo cells (ATCC, Cat. No. CCL-29); F-12K medium (Invitrogen, Cat. No. 21127-022); fetal bovine serum (Biological Industries, Cat. No. 04-002-1A); GlutaMAX (Gibco, Cat. No. 35050-061); 0.25% trypsin-EDTA (Invitrogen, Cat. No. 25200-072); CellTiter-Glo kit (Promega, Cat. No. G7558).
Experimental procedure: (1) F-12K medium, fetal bovine serum and GlutaMAX were formulated into a complete medium for culturing LoVo cells; (2) well-grown LoVo cells were taken, digested with trypsin and transferred to a centrifuge tube, and centrifuged; the supernatant was discarded, and cells were resuspended by adding a fresh medium and counted by a Vi-CELL XR cell counter; the density of the cell suspension was adjusted to 25,000 to 30,000 cells/mL, and the cell suspension was added at 100 μL/well in a 96-well cell culture plate, while a blank control group was set up with no cells added, and the cell culture plate was incubated in a carbon dioxide incubator overnight; (3) a DMSO solution of the compound to be tested was dispensed into the above 96-well cell culture plate using an HP D300 ultra-micro sampler, with 0.5 μL of the solution per well and 10 concentrations for each compound (3× dilution), while a DMSO control group with no compound added was set up, and the plate was continued to be incubated in a carbon dioxide incubator for 96 hours; (4) the cell culture plate was taken out and equilibrated to room temperature, with 100 μL of a CellTiter-Glo reagent added to each well, and then the plate was kept away from light, shaken for 10 minutes and then incubated for 10 minutes; (5) the cell culture plate was put into EnSpire for plate reading, and the luminescence value RLU was recorded.
Data processing: (1) The inhibition rate was calculated from the luminescence values: “RLUDMSO” is the luminescence value of the DMSO control group without compound, “RLUblank” is the luminescence value of the blank control group without cells, and “RLUcompound” is the luminescence value of the compound test group, and the inhibition rate=[1−(RLUcompound−RLUblank)/(RLUDMSO−RLUblank)]×100%; (2) with curve fitting using the Excel add-on XLFit, the IC50 value was calculated.

Sequence of ATR kinase (Q13535 whole entry): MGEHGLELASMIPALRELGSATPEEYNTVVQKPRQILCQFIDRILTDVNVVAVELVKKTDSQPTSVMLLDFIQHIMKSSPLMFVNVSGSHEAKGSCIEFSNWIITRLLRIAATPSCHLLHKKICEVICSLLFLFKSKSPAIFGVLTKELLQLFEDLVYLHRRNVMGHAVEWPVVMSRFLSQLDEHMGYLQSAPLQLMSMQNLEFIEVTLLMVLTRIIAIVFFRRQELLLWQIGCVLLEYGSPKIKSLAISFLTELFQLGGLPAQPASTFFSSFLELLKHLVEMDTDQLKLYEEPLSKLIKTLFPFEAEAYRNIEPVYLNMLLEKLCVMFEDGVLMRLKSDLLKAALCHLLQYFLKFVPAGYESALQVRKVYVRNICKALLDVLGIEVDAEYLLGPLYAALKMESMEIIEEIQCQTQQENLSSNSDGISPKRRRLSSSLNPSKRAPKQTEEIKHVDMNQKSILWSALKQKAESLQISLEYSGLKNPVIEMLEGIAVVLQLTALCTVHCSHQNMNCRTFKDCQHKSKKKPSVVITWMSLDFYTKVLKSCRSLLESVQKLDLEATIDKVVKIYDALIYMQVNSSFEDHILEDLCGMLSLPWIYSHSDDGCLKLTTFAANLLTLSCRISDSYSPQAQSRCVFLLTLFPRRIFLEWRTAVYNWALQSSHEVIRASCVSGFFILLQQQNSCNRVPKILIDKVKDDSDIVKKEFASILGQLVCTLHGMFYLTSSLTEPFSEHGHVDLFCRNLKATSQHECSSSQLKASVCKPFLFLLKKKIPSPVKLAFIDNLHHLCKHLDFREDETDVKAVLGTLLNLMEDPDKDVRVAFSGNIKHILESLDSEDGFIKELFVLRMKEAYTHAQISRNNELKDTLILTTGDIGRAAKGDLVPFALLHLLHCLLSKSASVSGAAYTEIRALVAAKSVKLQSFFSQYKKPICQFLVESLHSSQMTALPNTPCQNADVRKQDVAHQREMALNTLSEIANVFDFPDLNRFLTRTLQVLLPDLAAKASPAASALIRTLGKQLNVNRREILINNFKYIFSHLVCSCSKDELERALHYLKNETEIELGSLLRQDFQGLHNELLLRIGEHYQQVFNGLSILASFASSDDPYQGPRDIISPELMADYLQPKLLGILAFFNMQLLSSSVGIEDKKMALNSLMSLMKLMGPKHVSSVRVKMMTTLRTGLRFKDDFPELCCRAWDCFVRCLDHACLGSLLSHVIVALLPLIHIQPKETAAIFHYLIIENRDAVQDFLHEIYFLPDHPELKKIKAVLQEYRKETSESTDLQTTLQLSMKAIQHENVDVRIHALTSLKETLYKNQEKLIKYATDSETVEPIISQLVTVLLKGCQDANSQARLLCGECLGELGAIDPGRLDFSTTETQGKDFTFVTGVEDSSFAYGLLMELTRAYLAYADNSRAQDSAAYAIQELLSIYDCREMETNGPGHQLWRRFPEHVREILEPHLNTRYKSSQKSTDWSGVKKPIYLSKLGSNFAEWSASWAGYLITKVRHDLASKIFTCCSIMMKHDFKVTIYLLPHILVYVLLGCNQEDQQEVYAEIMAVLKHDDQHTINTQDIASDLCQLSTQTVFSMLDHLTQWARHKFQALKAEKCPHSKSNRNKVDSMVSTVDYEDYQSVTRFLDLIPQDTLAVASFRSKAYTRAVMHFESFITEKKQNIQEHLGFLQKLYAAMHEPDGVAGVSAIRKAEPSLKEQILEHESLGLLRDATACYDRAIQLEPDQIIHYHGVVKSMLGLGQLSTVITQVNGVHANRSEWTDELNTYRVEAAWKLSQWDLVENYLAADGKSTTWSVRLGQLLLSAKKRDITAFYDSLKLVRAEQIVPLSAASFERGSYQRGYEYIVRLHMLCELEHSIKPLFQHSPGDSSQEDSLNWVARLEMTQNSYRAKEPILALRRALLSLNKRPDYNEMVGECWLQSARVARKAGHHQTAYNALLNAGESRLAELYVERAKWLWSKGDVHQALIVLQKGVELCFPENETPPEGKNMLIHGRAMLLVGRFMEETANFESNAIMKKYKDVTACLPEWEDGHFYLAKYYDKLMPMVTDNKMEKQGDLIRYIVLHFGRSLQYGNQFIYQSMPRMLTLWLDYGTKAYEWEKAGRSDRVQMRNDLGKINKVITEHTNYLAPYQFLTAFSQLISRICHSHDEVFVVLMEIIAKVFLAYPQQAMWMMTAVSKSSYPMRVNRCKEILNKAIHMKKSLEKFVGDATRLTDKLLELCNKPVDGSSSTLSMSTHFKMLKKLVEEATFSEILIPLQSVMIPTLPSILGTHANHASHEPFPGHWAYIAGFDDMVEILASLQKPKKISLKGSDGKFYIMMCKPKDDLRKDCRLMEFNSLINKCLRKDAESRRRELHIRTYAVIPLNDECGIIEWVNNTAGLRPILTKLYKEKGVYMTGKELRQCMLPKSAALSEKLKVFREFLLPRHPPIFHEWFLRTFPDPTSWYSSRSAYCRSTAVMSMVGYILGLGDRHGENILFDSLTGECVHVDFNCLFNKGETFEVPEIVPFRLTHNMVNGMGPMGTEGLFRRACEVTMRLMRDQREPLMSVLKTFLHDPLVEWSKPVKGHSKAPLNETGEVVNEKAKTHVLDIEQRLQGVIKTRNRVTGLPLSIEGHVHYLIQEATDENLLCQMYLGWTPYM
Sequence of ATR kinase (Q8WXE1 whole entry partner): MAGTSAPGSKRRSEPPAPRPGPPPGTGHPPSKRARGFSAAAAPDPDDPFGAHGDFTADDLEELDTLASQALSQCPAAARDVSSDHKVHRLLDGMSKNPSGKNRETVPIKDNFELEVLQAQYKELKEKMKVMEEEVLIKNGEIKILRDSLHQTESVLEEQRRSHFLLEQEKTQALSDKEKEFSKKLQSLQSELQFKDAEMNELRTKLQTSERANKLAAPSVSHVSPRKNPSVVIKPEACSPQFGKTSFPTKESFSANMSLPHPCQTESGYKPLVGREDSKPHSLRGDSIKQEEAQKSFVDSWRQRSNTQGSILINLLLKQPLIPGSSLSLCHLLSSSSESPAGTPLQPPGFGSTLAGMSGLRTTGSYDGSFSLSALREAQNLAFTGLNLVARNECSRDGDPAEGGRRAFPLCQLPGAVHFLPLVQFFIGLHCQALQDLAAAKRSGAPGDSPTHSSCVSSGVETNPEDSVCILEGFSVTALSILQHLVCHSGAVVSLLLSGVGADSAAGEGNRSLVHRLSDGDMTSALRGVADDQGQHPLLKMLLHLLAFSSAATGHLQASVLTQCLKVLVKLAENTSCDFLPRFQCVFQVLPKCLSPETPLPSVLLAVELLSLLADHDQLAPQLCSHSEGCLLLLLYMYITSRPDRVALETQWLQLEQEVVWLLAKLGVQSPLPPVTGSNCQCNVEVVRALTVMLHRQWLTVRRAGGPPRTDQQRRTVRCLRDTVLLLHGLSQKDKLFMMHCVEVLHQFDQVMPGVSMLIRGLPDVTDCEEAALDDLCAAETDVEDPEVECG

| IC50 [1] | IC50 [2] | SMILES | Emax ([2]; Homo sapiens) | Max Inhibition [2] | IC50 ([2]; Homo sapiens) |
| --- | --- | --- | --- | --- | --- |
| 3.2 nM |  | C[C@@H]1COCCN1c1cc(-c2cc(F)cc3[nH]ccc23)nc2c1ccn2S(C)(=O)=O [Compound 7, (R)-4-(6-(6-fluoro-1H-indol-4-yl)-1-(methylsulfonyl)-1H-pyrrolo[2,3-b]pyridin-4-yl)-3-methylmorpholine] | 95% |  |  |
| 1.6 nM |  | C[C@@H]1COCCN1c1nc(-c2cncc3[nH]ccc23)nc2c1ccn2S(C)(=O)=O [Compound 19, (R)-3-methyl-4-(7-(methylsulfonyl)-2-(1H-pyrrolo[2,3-c]pyridin-4-yl)-7H-pyrrolo[2,3-d]pyrimidin-4-yl)morpholine] | 90% |  |  |
| 1.6 nM |  | C[C@@H]1COCCN1c1nc(-c2nc3ccccc3[nH]2)nc2c1ccn2S(C)(=O)=O [Compound 27, (R)-4-(2-(1H-benzo[d]imidazol-2-yl)-7-(methylsulfonyl)-7H-pyrrolo[2,3-d]pyrimidin-4-yl)-3-methylmorpholine] | 94% |  |  |
| 17 nM | 1820 nM | C[C@@H]1COCCN1c1cc(-c2ccnc3[nH]ccc23)nc2c1ccn2S(=O)(=O)N(C)C [Compound 16, (R)-N,N-dimethyl-4′-(3-methylmorpholinyl)-1H,1′H-[4,6′-dipyrrolo[2,3-b]pyridine]-1′-sulfamide] |  | 93% |  |
| 4.2 nM |  | C[C@@H]1COCCN1c1cc(-c2cccc3[nH]ccc23)nc2c1ccn2S(C)(=O)=O [Compound 2, (R)-4-(6-(1H-indol-4-yl)-1-(methylsulfonyl)-1H-pyrrolo[2,3-b]pyridin-4-yl)-3-methylmorpholine] | 94% |  |  |
| 8.6 nM |  | C[C@@H]1COCCN1c1nc(-c2ccnc3[nH]ccc23)cc2c1ccn2S(C)(=O)=O [Compound 26, (R)-3-methyl-4-(1-(methylsulfonyl)-6-(1H-pyrrolo[2,3-b]pyridin-4-yl)-1H-pyrrolo[3,2-c]pyridin-4-yl)morpholine] | 92% |  |  |
| 10 nM |  | C[C@@H]1COCCN1c1nc(-c2ccnc3[nH]ccc23)nc2c1ncn2S(C)(=O)=O [Compound 22, (R)-3-methyl-4-(9-(methylsulfonyl)-2-(1H-pyrrolo[2,3-b]pyridin-4-yl)-9H-purin-6-yl)morpholine] | 93% |  |  |
| 9.4 nM |  | C[C@@H]1COCCN1c1nc(-c2cncc3[nH]ccc23)cc2c1ncn2S(C)(=O)=O [Compound 25, (R)-3-methyl-4-(1-(methylsulfonyl)-6-(1H-pyrrolo[2,3-c]pyridin-4-yl)-1H-imidazo[4,5-c]pyridin-4-yl)morpholine] | 89% |  |  |
| 4.4 nM |  | C[C@@H]1COCCN1c1nc(-c2cc(Cl)cc3[nH]ccc23)nc2c1ccn2S(C)(=O)=O [Compound 31, (R)-4-(2-(6-chloro-1H-indol-4-yl)-7-(methylsulfonyl)-7H-pyrrolo[2,3-d]pyrimidin-4-yl)-3-methylmorpholine] | 93% |  |  |
| 12 nM | 1270 nM | C[C@@H]1COCCN1c1cc(-c2ccnc3[nH]ccc23)nc2c1ccn2S(=O)(=O)C1CC1 [Compound 15, (R)-4-(1′-(cyclopropylsulfonyl)-1H,1′H-[4,6′-dipyrrolo[2,3-b]pyridin]-4′-yl)-3-methylmorpholine] |  | 94% |  |
| 2.3 nM |  | C[C@@H]1COCCN1c1nc(-c2cccc3[nH]ccc23)nc2c1ccn2S(C)(=O)=O [Compound 18, (R)-4-(2-(1H-indol-4-yl)-7-(methylsulfonyl)-7H-pyrrolo[2,3-d]pyrimidin-4-yl)-3-methylmorpholine] | 92% |  |  |
| 5 nM |  | CCS(=O)(=O)n1ccc2c(N3CCOC[C@H]3C)nc(-c3ccnc4[nH]ccc34)nc21 [Compound 33, (R)-4-(7-(ethylsulfonyl)-2-(1H-pyrrolo[2,3-b]pyridin-4-yl)-7H-pyrrolo[2,3-d]pyrimidin-4-yl)-3-methylmorpholine] | 92% |  |  |
| 10 nM |  | C[C@@H]1COCCN1c1cc(-c2cncc3[nH]ccc23)nc2c1ccn2S(C)(=O)=O [Compound 3, (R)-3-methyl-4-(1-(methylsulfonyl)-6-(1H-pyrrolo[2,3-c]pyridin-4-yl)-1H-pyrrolo[2,3-b]pyridin-4-yl)morpholine] | 93% |  |  |
| 4.1 nM | 100 nM | CNc1nc2ccccc2n1-c1nc(N2CCOC[C@H]2C)c2ccn(S(C)(=O)=O)c2n1 [Compound 28, (R)-N-methyl-1-(4-(3-methylmorpholinyl)-7-(methylsulfonyl)-7H-pyrrolo[2,3-d]pyrimidin-2-yl)-1H-benzo[d]imidazol-2-amine] |  | 92% |  |
| 35 nM | 2130 nM | CC(C)S(=O)(=O)n1ccc2c(N3CCOC[C@H]3C)cc(-c3ccnc4[nH]ccc34)nc21 [Compound 14, (R)-4-(1′-(isopropylsulfonyl)-1H,1′H-[4,6′-dipyrrolo[2,3-b]pyridin]-4′-yl)-3-methylmorpholine] |  | 93% |  |
| 1.6 nM |  | C[C@@H]1COCCN1c1nc(-c2ccnc3[nH]ccc23)nc2c1ccn2S(C)(=O)=O [Compound 17, (R)-3-methyl-4-(7-(methylsulfonyl)-2-(1H-pyrrolo[2,3-b]pyridin-4-yl)-7H-pyrrolo[2,3-d]pyrimidin-4-yl)morpholine] | 93% |  |  |
| 2.3 nM |  | Cc1cc(-c2nc(N3CCOC[C@H]3C)c3ccn(S(C)(=O)=O)c3n2)c2cc[nH]c2c1 [Compound 29, (R)-3-methyl-4-(2-(6-methyl-1H-indol-4-yl)-7-(methylsulfonyl)-7H-pyrrolo[2,3-d]pyrimidin-4-yl)morpholine] | 94% |  |  |
| 4.4 nM | 710 nM | C[C@@H]1COCCN1c1nc(-c2ccnc3[nH]ccc23)nc2c1ccn2S(=O)(=O)CCO [Compound 21, (R)-2-((4-(3-methylmorpholinyl)-2-(1H-pyrrolo[2,3-b]pyridin-4-yl)-7H-pyrrolo[2,3-d]pyrimidin-7-yl)sulfonyl)ethanol] |  | 92% |  |
| 9.4 nM | 1060 nM | C[C@@H]1COCCN1c1nc(-c2cc(C#N)cc3[nH]ccc23)nc2c1ccn2S(C)(=O)=O [Compound 30, (R)-4-(4-(3-methylmorpholinyl)-7-(methylsulfonyl)-7H-pyrrolo[2,3-d]pyrimidin-2-yl)-1H-indol-6-carbonitrile] |  | 93% |  |
| 1.6 nM |  | C[C@@H]1COCCN1c1nc(-c2cc(F)cc3[nH]ccc23)nc2c1ccn2S(C)(=O)=O [Compound 20, (R)-4-(2-(6-fluoro-1H-indol-4-yl)-7-(methylsulfonyl)-7H-pyrrolo[2,3-d]pyrimidin-4-yl)-3-methylmorpholine] | 91% |  |  |

| SMILES | IC50 [1] | IC50 [2] | Emax ([2]; Homo sapiens) | Max Inhibition [2] | IC50 ([2]; Homo sapiens) |
| --- | --- | --- | --- | --- | --- |
| C[C@@H]1COCCN1c1nc(-c2ccnc3[nH]ccc23)nc2c1cnn2S(C)(=O)=O [Compound 23, (R)-3-methyl-4-(1-(methylsulfonyl)-6-(1H-pyrrolo[2,3-b]pyridin-4-yl)-1H-pyrazolo[3,4-d]pyrimidin-4-yl)morpholine] | 15 nM |  | 92% |  | 740 nM |
| C[C@@H]1COCCN1c1cc(-c2ccnc3[nH]ccc23)nc2c1ccn2S(C)(=O)=O [Compound 1, (R)-3-methyl-4-(1′-(methylsulfonyl)-1H,1′H-[4,6′-dipyrrolo[2,3-b]pyridin]-4′-yl)morpholine] | 5.5 nM | 660 nM |  |  |  |
| C[C@@H]1COCCN1c1nc(-c2ccnc3[nH]ccc23)nc2c1ccn2S(=O)(=O)N(C)C [Compound 34, (R)-N,N-dimethyl-4-(3-methylmorpholinyl)-2-(1H-pyrrolo[2,3-b]pyridin-4-yl)-7H-pyrrolo[2,3-d]pyrimidine-7-sulfamide] | 7.1 nM | 290 nM |  | 93% |  |
